Entries after “also recorded” stand apart in the source; their conditions may differ.
What was measured:
[1] = test system: biofilm of S. aureus ATCC 6538; test: 96-well plate crystal violet assay for biofilm inhibition; type: cell-based, Staphylococcus aureus; settings: at 100 μg/mL, biofilm of S. aureus, 24 hours; for inhibition at 100 µg/mL: Staphylococcus aureus, ATCC6538, read-out: Antibiofilm Activity (% Inhibition ± SEM)
Protocol: The quantitative determination of biofilm inhibition was carried out by the crystal violet assay on a sterile 96-well plate with slight modifications. The glycerol stock of S. aureus was revived overnight at 37°C at 80 rpm. The overnight culture was then diluted 100 folds in fresh BHI broth, supplemented with 0.25% glucose. The cell density was adjusted to 1×10^7 and 195μL of the cell suspension was added in 96-well plate. […] Following that, the plate was washed with sterile distilled water in order to decant the non-adherent cells, and media. The plate was then dried at 60°C for 1 hour, and 200 μL of 0.1% (w/v) crystal violet was added to stain biofilm for 20 minutes. The plate was washed again, air dried, and dispensed 30% (v/v) acetic acid in each well to dissolve the biofilm. The inhibition of biofilm formation was analyzed by measuring the absorbance at 595 nm using the microplate reader (Multiskan Sky, Thermo Scientific, USA). The percent inhibition of biofilm formation was calculated via the following formula: 100−ƛTreated−ƛBlank/ƛControl−ƛBlank×100 Whereƛ=absorbance

S. aureus = test: Antibacterial activity (bacterial growth inhibition); type: cell-based, Staphylococcus aureus; settings: at 100 μg/mL; for inhibition at 100 µg/mL: Staphylococcus aureus, read-out: Antibacterial Activity (% Inhibition ± SEM)

| SMILES | Antibiofilm Activity (% Inhibition ± SEM) [1] | Antibacterial Activity (% Inhibition ± SEM) (S. aureus) | inhibition at 100 µg/mL (S. aureus) [%] | inhibition at 100 µg/mL [1] [%] |
| --- | --- | --- | --- | --- |
| Cc1ccc2oc(=O)c(/C=N/NC(N)=S)c(Cl)c2c1 [Compound 1, (E)-2-((4-Chloro-6-methyl-2-oxo-2H-chromen-3-yl)methylene)hydrazinecarbothioamide] | inactive | inactive | – | – |
| Cc1ccc2oc(=O)c(/C=N/Nc3nc(-c4ccc(Cl)cc4Cl)cs3)c(Cl)c2c1 [Compound 5, (E)-4-Chloro-3-((2-(4-(2,4-dichlorophenyl)thiazol-2-yl)hydrazono)methyl)-6-methyl-2H-chromen-2-one] | No Inhibition | – | 36 ± 8.77 | – |
| Cc1ccc2oc(=O)c(/C=N/Nc3nc(-c4ccc(Br)cc4)cs3)c(Cl)c2c1 [Compound 6, (E)-3-((2-(4-(4-Bromophenyl)thiazol-2-yl)hydrazono)methyl)-4-chloro-6-methyl-2H-chromen-2-one] | induced biofilm inhibition; also recorded: dual anti-bacterial and anti-biofilm effect | – | 72 ± 7.22 | 61 ± 4.05 |
| Cc1ccc2oc(=O)c(/C=N/Nc3nc(-c4ccc(Cl)cc4)cs3)c(Cl)c2c1 [Compound 7, (E)-4-Chloro-3-((2-(4-(4-chlorophenyl)thiazol-2-yl)hydrazono)methyl)-6-methyl-2H-chromen-2-one] | No Inhibition | – | 41 ± 11.1 | – |
| COc1ccc(-c2csc(N/N=C/c3c(Cl)c4cc(C)ccc4oc3=O)n2)cc1 [Compound 8, (E)-4-Chloro-3-((2-(4-(4-methoxyphenyl)thiazol-2-yl)hydrazono)methyl)-6-methyl-2H-chromen-2-one] | induced biofilm inhibition; also recorded: dual anti-bacterial and anti-biofilm effect | – | 52 ± 5.08 | 66 ± 5.11 |
| C/C(=N\NC(N)=S)c1cc2ccccc2oc1=O [Compound 9, (E)-2-(1-(2-Oxo-2H-chromen-3-yl)ethylidene)hydrazinecarbothioamide] | No Inhibition | – | 55 ± 5.43 | 22 |
| C/C(=N\Nc1nc(-c2ccc(Cl)cc2)cs1)c1cc2ccccc2oc1=O [Compound 11, (E)-3-(1-(2-(4-(4-Chlorophenyl)thiazol-2-yl)hydrazono)ethyl)-2H-chromen-2-one] | induced biofilm inhibition; also recorded: dual anti-bacterial and anti-biofilm effect | – | 88 ± 4.32 | 70 ± 7.09 |
| C/C(=N\Nc1nc(-c2ccc(Cl)c(Cl)c2)cs1)c1cc2ccccc2oc1=O [Compound 12, (E)-3-(1-(2-(4-(3,4-Dichlorophenyl)thiazol-2-yl)hydrazono)ethyl)-2H-chromen-2-one] | No Inhibition | – | – | – |
| C/C(=N\Nc1nc(-c2cccc([N+](=O)[O-])c2)cs1)c1cc2ccccc2oc1=O [Compound 13, (E)-3-(1-(2-(4-(3-Nitrophenyl)thiazol-2-yl) hydrazono)ethyl)-2H-chromen-2-one] | No Inhibition | No Inhibition | – | – |
| C/C(=N\Nc1nc(-c2ccc(C#N)cc2)cs1)c1cc2ccccc2oc1=O [Compound 14, (E)-4-(2-(2-(1-(2-Oxo-2H-chromen-3-yl)ethylidene)hydrazinyl)thiazol-4-yl)benzonitrile] | induced biofilm inhibition; also recorded: dual anti-bacterial and anti-biofilm effect | – | 61 ± 9.33 | 68 ± 6.63 |
| C/C(=N\Nc1nc(-c2ccccc2O)cs1)c1cc2ccccc2oc1=O [Compound 15, (E)-3-(1-(2-(4-(2-Hydroxyphenyl)thiazol-2-yl)hydrazono)ethyl)-2H-chromen-2-one] | induced biofilm inhibition | – | 73 ± 7.16 | 34 ± 5.11 |
| O=c1oc2ccccc2cc1-c1csc(N/N=C/c2ccccc2)n1 [Compound 16, (E)-3-(2-(2-Benzylidenehydrazinyl)thiazol-4-yl)-2H-chromen-2-one] | No inhibition | – | – | – |
| O=c1oc2ccccc2cc1-c1csc(N/N=C/c2cccc(Cl)c2)n1 [Compound 18, (E)-3-(2-(2-(3-Chlorobenzylidene)hydrazinyl)thiazol-4-yl)-2H-chromen-2-one] | – | – | 32 ± 8.97 | 25 ± 5.26 |
| O=c1oc2ccccc2cc1-c1csc(N/N=C/c2ccc(Cl)cc2)n1 [Compound 19, (E)-3-(2-(2-(4-Chlorobenzylidene)hydrazinyl)thiazol-4-yl)-2H-chromen-2-one] | – | No Inhibition | – | 37 ± 6.98 |
| O=c1oc2ccccc2cc1-c1csc(N/N=C/c2ccc(Cl)cc2Cl)n1 [Compound 20, (E)-3-(2-(2-(2,4-Dichlorobenzylidene)hydrazinyl)thiazol-4-yl)-2H-chromen-2-one] | No Inhibition | – | – | – |
| O=c1oc2ccccc2cc1-c1csc(N/N=C/c2ccccc2[N+](=O)[O-])n1 [Compound 21, (E)-3-(2-(2-(2-Nitrobenzylidene)hydrazinyl)thiazol-4-yl)-2H-chromen-2-one] | No Inhibition | – | – | – |
